Values after ≈ are worked out from the molar mass of the structure shown. Where two headings read alike, the source gives them in different places.
What was measured:
streptococci = assay: organism not typed; assay type: cell-based
S. pneumoniae [1] = assay type: cell-based
pneumococci = assay: microbe, parasite or virus in culture; assay type: cell-based, S. pneumoniae; settings: Streptococcus pneumoniae
S. pneumoniae [2] = assay: microbe, parasite or virus in culture; assay type: cell-based

CCC[C@@H]1C[C@@H](C(=O)N[C@@H]([C@H]2O[C@H](SC)[C@H](O)[C@@H](O)[C@H]2O)[C@H](C)Cl)N(C)C1 [CLN, clindamycin]
MIC50 (streptococci): ≤ 0.12 µg/mL
single step mutation frequency (S. pneumoniae [1]; strain 1077 Macrolide-S, 2 × MIC): <3.8 × 10^−10
single step mutation frequency (S. pneumoniae [1]; strain 1077 Macrolide-S, 4 × MIC): <3.8 × 10^−10
single step mutation frequency (S. pneumoniae [1]; strain 1077 Macrolide-S, 8 × MIC): <3.8 × 10^−10
single step mutation frequency (S. pneumoniae [1]; strain 1635 Macrolide-R [erm(A)], 2 × MIC): 7.3 × 10^−7
single step mutation frequency (S. pneumoniae [1]; strain 1635 Macrolide-R [erm(A)], 4 × MIC): 5.5 × 10^−7
single step mutation frequency (S. pneumoniae [1]; strain 1635 Macrolide-R [erm(A)], 8 × MIC): 5.6 × 10^−7
single step mutation frequency (S. pneumoniae [1]; strain 2686 Macrolide-R [L4 mutation], 2 × MIC): <1.2 × 10^−9
single step mutation frequency (S. pneumoniae [1]; strain 2686 Macrolide-R [L4 mutation], 4 × MIC): <1.2 × 10^−9
single step mutation frequency (S. pneumoniae [1]; strain 2686 Macrolide-R [L4 mutation], 8 × MIC): <1.2 × 10^−9
single step mutation frequency (S. pneumoniae [1]; strain 3009 Macrolide-R [23S rRNA mutation], 2 × MIC): 1.7 × 10^−4
single step mutation frequency (S. pneumoniae [1]; strain 3009 Macrolide-R [23S rRNA mutation], 4 × MIC): 7.3 × 10^−9
single step mutation frequency (S. pneumoniae [1]; strain 3009 Macrolide-R [23S rRNA mutation], 8 × MIC): <1.2 × 10^−10
single step mutation frequency (S. pneumoniae [1]; strain 3665 Macrolide-R [mef(A)], 2 × MIC): <2.4 × 10^−10
single step mutation frequency (S. pneumoniae [1]; strain 3665 Macrolide-R [mef(A)], 4 × MIC): <2.4 × 10^−10
single step mutation frequency (S. pneumoniae [1]; strain 3665 Macrolide-R [mef(A)], 8 × MIC): <2.4 × 10^−10
single step mutation frequency (S. pneumoniae [1]; strain 7127 Macrolide-S [S20N in L4, A105V in L22], 2 × MIC): <2.9 × 10^−8
single step mutation frequency (S. pneumoniae [1]; strain 7127 Macrolide-S [S20N in L4, A105V in L22], 4 × MIC): <2.9 × 10^−8
single step mutation frequency (S. pneumoniae [1]; strain 7127 Macrolide-S [S20N in L4, A105V in L22], 8 × MIC): <2.9 × 10^−8
MIC50 (pneumococci; pneumococci, L4 mutations (27)): 0.06 µg/mL (≈ 0.141 µM)
MIC90 (pneumococci; pneumococci, L4 mutations (27)): 0.125 µg/mL (≈ 0.294 µM)
MIC (pneumococci; read-out: MIC range, pneumococci, L4 mutations (27)): 0.03 to 0.125 µg/mL (≈ 0.0706 to 0.294 µM)
nonsusceptibility (S. pneumoniae [2]): 83.3%
MIC90 (S. pneumoniae [2]; Streptococcus pneumoniae): > 16 µg/mL
